The source of these data is patent EP4772164A1, “CERAMIDE MIXTURE FOR IMPROVING COMPATIBILITY” (Amorepacific Corporation, priority 2023, dated 2025).

Holding throughout (assay type): physicochemical
A short description of data set [1]: Ceramide compatibility by differential scanning calorimetry (DSC): melting enthalpy and compatibility ratio. To be noted: for Peak area / Melting enthalpy: DSC; for Compatibility ratio 104+NPO / Compatibility ratio 104+NPS: from total melting enthalpy; for Compatibility ratio 104+NPO / Enthalpy (J/g) NPO / Compatibility ratio 104+NPS / Enthalpy (J/g) NPS: by 104 Ratio; for Enthalpy (J/g) NPO / Enthalpy (J/g) NPS: total melting enthalpy of mixed ceramides; for Enthalpy (J/g) NPO: 104 with NPO; for Melting enthalpy: total melting enthalpy of single unmixed ceramide; for Ratio: measured peak area / calculated theoretical value, PC-104 and NPS; for Enthalpy (J/g) NPS: 104 with NPS. On the procedure:
Ceramide compatibility was evaluated through measurement of differential scanning calorimetry (DSC). It is known that a ceramide compatibility study through DSC measurement may be utilized when measurement is not performed by polythermal and isothermal methods, or when slurry density of a solution is high, but has almost never been utilized in a ceramide study. In prediction of solubility of indomethacin (IMC) in polymers such as hydroxypropyl methylcellulose (HPMC) and polyvinylpyrrolidone (PVP), it was also confirmed that solubility prediction of a DSC method is excellent in a combination of IMC and HPMC. Since confirming compatibility between ceramides is a situation of confirming solubility when two solid-phase substances are mixed, a DSC experiment is determined to be very suitable, and thus the present inventors confirmed compatibility by measuring enthalpy of each ceramide, predicting enthalpy of a binary mixture, and actually measuring the same. For DSC measurement, a Thermal Analysis System (differential scanning calorimetry) such as Discovery DSC 250 of TA Instruments was used. In a DSC graph, melting enthalpy was measured by obtaining a peak area, and a unit of the peak area was J/g. A compatibility ratio was calculated by comparing a peak area measurement result of a sample in which ceramides are mixed and a calculated theoretical value (calculated sum area). A compatibility ratio is a ratio indicating compatibility when two components are mixed, and may be used to evaluate whether two components are stable even when mixed and may maintain desired characteristics.. […]
A single sample in which PC-104 and ceramide NP are unmixed (10:0 or 0:10), and samples in which PC-104 and ceramide NP are mixed at ratios such as 1:9 to 9.99:0.01, were each made, a DSC peak area was measured, and an actually measured DSC peak area and a calculated theoretical value according to a ratio of PC-104 and ceramide NP were compared. For compatibility evaluation, a ceramide mixing ratio having a low compatibility ratio was confirmed.

Assay in data set [2]: as above
Particulars: for Ratio: measured peak area / calculated theoretical value.

Data set [3] can be described thus: Solubility of ceramide or ceramide mixture in pure ethanol (94.5% or more). The text has this: Through Example 1, an effect of improvement of compatibility according to ceramide mixing confirmed through DSC measurement was confirmed. Accordingly, an effect of improvement of solubility was additionally confirmed. Specifically, solubility was confirmed as to how well the ceramide or the ceramide mixture dissolves in pure ethanol (94.5% or more).

[4] abbreviates: PC-104 and NPO at stated weight mixing ratio.
Setting [5] is: PC-104 and NPS at stated weight mixing ratio.

As for `CCCCCCCC/C=C\CCCCCCCC(=O)N[C@@H](CO)[C@H](O)[C@H](O)CCCCCCCCCCCCCC` [NPO, CERAMIDE NP(oleic acid)], the “Peak area” value in data set [1] (setting [4]) stood at 89.0 J/g. In data set [1], the “Compatibility ratio 104+NPO” value was 1.00, the “Enthalpy (J/g) NPO” value is 89.0 J/g and the “Melting enthalpy” value worked out at 89.0 J/g. For the same compound, the Ratio in data set [2] (PC-104 and NPO) is recorded as 1.00.

As to `CCCCCCCCCCCCCCCC(=O)N(CCO)CC(O)CN(CCO)C(=O)CCCCCCCCCCCCCCC` [PC-104, HYDROXYPROPYL BISPALMITAMIDE MEA], the “Peak area” value in data set [1] (setting [4]) turned out to be 151.6 J/g. The “Peak area” value in data set [1] (setting [5]) turned out to be 151.6 J/g. In addition, in data set [1], the “Compatibility ratio 104+NPO” value amounted to 1.00, the “Compatibility ratio 104+NPS” value was found to be 1.00, the Ratio is listed as 1.00 and the “Enthalpy (J/g) NPO” value is given as 151.6 J/g. In data set [1], the “Enthalpy (J/g) NPS” value was 151.6 J/g and the “Melting enthalpy” value came out at 151.6 J/g. In addition, the “EtOH solubility (mg/uL)” value in data set [3] is “about 0.04636 mg/uL”. In addition, in data set [2] (DSC, PC-104 and NPM at stated weight mixing ratio), the “Peak area” value is listed as 151.6 J/g. Further, in data set [2] (PC-104 and NPM compositions of the solubility test), the “DSC enthalpy (J/g) of corresponding composition” value came to 151.6 J/g. The “Calculated sum area” value in data set [2] (calculated theoretical value from the two unmixed ceramides, PC-104 and NPM) was 151.6 J/g. Further, the “Compatibility ratio 104+NPM” value in data set [2] (from total melting enthalpy, by 104 Ratio) came out at 1.00. In addition, the Ratio in data set [2] (PC-104 and NPM) is 1.00. For the same compound, the Ratio in data set [2] (PC-104 and NPO) is 1.00. The “Enthalpy (J/g) NPM” value in data set [2] (total melting enthalpy of mixed ceramides, 104 with NPM, by 104 Ratio) is 151.6 J/g.

On to `CCCCCCCCCCCCCCCCCC(=O)NC(CO)C(O)C(O)CCCCCCCCCCCCCC` (centres unmarked) [NPS, CERAMIDE NP(stearic acid)], for which the “Peak area” value in data set [1] (setting [5]) was found to be 114.6 J/g. Besides, in data set [1], the “Compatibility ratio 104+NPS” value came to 1.00, the Ratio is on record as 1.00, the “Enthalpy (J/g) NPS” value is 114.6 J/g and the “Melting enthalpy” value was 114.6 J/g.
